Some test systems named below: MALME-3M melanoma; NCI-H23 lung; BT-549 breast; SK-MEL-28 melanoma; CAKI-1 renal; NCI-H522 lung; NCI-H460 lung; OVCAR-3 ovarian; HOP-62 NSCLC; SR leukemia.
What all share (test): inhibition of tumour cell growth, NCI panel, 48 h

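Where inhibition never reached the appropriate level, the endpoint shown equals the highest concentration tested. Otherwise, values were interpolated linearly from a five-concentration, 48-hour dose response in 96-well plates. GI50 is the concentration that inhibits growth by half. Definition used: TGI = concentration required for complete inhibition of growth.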 Where a SMILES comes first, the peptide text is derived from it. The star is where a group is joined. Boc = CC(C)(C)OC(=O)*; Bz = O=C(c1ccccc1)*

For `CC1(C)[C@H](C(=O)O)N2C(=O)[C@@H](NS(=O)(=O)c3ccc([N+](=O)[O-])cc3)[C@H]2S1(=O)=O`, the TGI with MALME-3M melanoma, in the assay on NCI-H23 lung, in the assay on BT-549 breast, in the assay on SK-MEL-28 melanoma, with CAKI-1 renal and in the assay with NCI-H522 lung was above 100 µM throughout. For the same compound, the TGI with NCI-H460 lung, in the assay with OVCAR-3 ovarian and in the assay with HOP-62 NSCLC was above 100 µM in each case.
As for `COc1ccc(/C=C2\CCC(C)C3=C(c4ccc(OC)c(OC)c4)C(C#N)=C(N)OC32)cc1OC` (configuration not stated), the TGI with MALME-3M melanoma is 32.2 µM; with NCI-H23 lung, 13.6 µM; with BT-549 breast it was 24.5 µM; in the assay on SK-MEL-28 melanoma, 31.7 µM; in the assay on CAKI-1 renal it was above 100 µM; in the assay with NCI-H460 lung it was 11.1 µM. In the assay with OVCAR-3 ovarian, this compound yielded a TGI of 48.3 µM.
On to `CS(=O)(=O)c1ccc(/C=N/NC(N)=S)cc1`, for which the TGI with MALME-3M melanoma, in the assay with NCI-H23 lung, with BT-549 breast, with SK-MEL-28 melanoma, with CAKI-1 renal and in the assay with NCI-H522 lung was above 100 µM each time. In addition, the TGI in the assay with NCI-H460 lung, in the assay with OVCAR-3 ovarian and with HOP-62 NSCLC was above 100 µM each time.
Consider `CC1=NCCN=C(C)C1N=Nc1ccc2nc(C)[nH]c2c1`, for which the TGI in the assay with MALME-3M melanoma was 41.5 µM; with NCI-H23 lung, 44.2 µM; with BT-549 breast, 28.2 µM; in the assay with SK-MEL-28 melanoma it was 24.2 µM; in the assay with CAKI-1 renal, 36 µM; in the assay with NCI-H522 lung it was 61.8 µM. Moreover, the TGI in the assay with NCI-H460 lung is 52.1 µM; in the assay with OVCAR-3 ovarian it was 44.3 µM; in the assay on HOP-62 NSCLC, 61.1 µM.
Consider `O=C(O)c1cc2ccccc2c(N=Nc2ccccc2)c1O`, for which the TGI with MALME-3M melanoma was 26.6 µM; with NCI-H23 lung, 56.1 µM; in the assay on BT-549 breast, 45.1 µM; in the assay on SK-MEL-28 melanoma it was above 100 µM; in the assay with CAKI-1 renal it was 84.2 µM; with NCI-H522 lung it was 59.6 µM. The TGI in the assay on OVCAR-3 ovarian is above 100 µM; in the assay on HOP-62 NSCLC, 32.5 µM.
In the case of `ClCCCN(CCCCl)c1ccc(C=Nc2cccc(Cl)c2)cc1`, the TGI in the assay with MALME-3M melanoma is 44.3 µM; in the assay with NCI-H23 lung, 53.5 µM; with BT-549 breast, above 100 µM; with SK-MEL-28 melanoma, above 100 µM; with CAKI-1 renal, 11.8 µM; in the assay with NCI-H522 lung it was above 100 µM. Also, the TGI in the assay with NCI-H460 lung is above 82.1 µM; in the assay on OVCAR-3 ovarian it was 57.9 µM; in the assay with HOP-62 NSCLC it was above 75.1 µM. The GI50 with BT-549 breast was 71.2 µM.
With `CC1(C)CCC[C@@]2(C)C1CCC1(C)C(CCc3ccoc3)/C(=C/OS(=O)(=O)O)CCC12` (some centres not stated) (tested in a mixture with another compound), the TGI in the assay with MALME-3M melanoma, in the assay with NCI-H23 lung, with SK-MEL-28 melanoma, in the assay on CAKI-1 renal, with NCI-H460 lung and in the assay with OVCAR-3 ovarian was above 100 µM throughout. Moreover, the TGI in the assay with HOP-62 NSCLC and in the assay on SR leukemia was above 100 µM throughout.
As for `CC(NC(=O)C(Cc1ccc(OC(=O)c2ccccc2)cc1)NC(=O)OC(C)(C)C)C(=O)NC(Cc1ccccc1)C(=O)NCC(N)=O` (configuration not stated) (Boc-Y(Bz)AFG-NH2; configuration not given here), the TGI in the assay with MALME-3M melanoma was 42 µM; in the assay on NCI-H23 lung, 45.9 µM; with BT-549 breast it was 37.4 µM; in the assay on SK-MEL-28 melanoma, above 100 µM; in the assay on CAKI-1 renal it was above 100 µM; in the assay on NCI-H522 lung, 42.6 µM. Besides, the TGI in the assay on NCI-H460 lung turned out to be 33.7 µM; with HOP-62 NSCLC, 31.4 µM.
As for `CC(=O)OC1=c2ccccc2=C(O)C2C1C=NN2C(C)=O` (configuration not stated), the TGI in the assay with MALME-3M melanoma, in the assay on NCI-H23 lung, with BT-549 breast, in the assay with SK-MEL-28 melanoma, with CAKI-1 renal and in the assay on NCI-H522 lung was above 100 µM throughout. Besides, the TGI in the assay on NCI-H460 lung, in the assay on OVCAR-3 ovarian and with HOP-62 NSCLC was above 100 µM in each case.
For the compound `N#CN=C(N)c1sc2nc3c(c(-c4ccc(Br)cc4)c2c1N)CCCC3`, the TGI in the assay with NCI-H23 lung is 66.9 µM; in the assay with SK-MEL-28 melanoma it was above 100 µM; with CAKI-1 renal, 42.4 µM; with NCI-H460 lung, above 100 µM; in the assay on SR leukemia it was 50.3 µM.
In the case of `CC[C@@]1(N(C)C)C(=O)OCc2c1cc1n(c2=O)Cc2cc3ccccc3nc2-1`, the TGI with MALME-3M melanoma was 55.3 µM; in the assay on NCI-H23 lung, 32 µM; in the assay on BT-549 breast, 39.5 µM; in the assay on SK-MEL-28 melanoma, above 100 µM; in the assay with NCI-H522 lung it was 28.7 µM; in the assay with NCI-H460 lung, 50.6 µM. Further, the TGI with OVCAR-3 ovarian was above 100 µM; in the assay on HOP-62 NSCLC, 36.2 µM.
For the compound `Oc1ccc(-c2csc(NNC3=NC/C(=C/c4ccc5c(c4)OCO5)S3)n2)cc1O`, the TGI with NCI-H23 lung is 47.7 µM; in the assay with SK-MEL-28 melanoma, above 100 µM; in the assay with CAKI-1 renal it was 90.7 µM; in the assay with NCI-H460 lung it was above 100 µM; in the assay with HOP-62 NSCLC, above 100 µM.
On to `CCOC(=O)c1cnn2c1ncc1c(=O)n(NC(N)=O)ccc12`, for which the TGI in the assay on MALME-3M melanoma, in the assay on NCI-H23 lung, in the assay with BT-549 breast, with SK-MEL-28 melanoma, in the assay on CAKI-1 renal and with NCI-H522 lung was above 100 µM in each case. Also, the TGI with NCI-H460 lung, in the assay with OVCAR-3 ovarian and in the assay with HOP-62 NSCLC was above 100 µM each time.
In the case of `O=C(OCc1ccccc1CN1CCOCC1)c1cccc(Br)c1`, the TGI in the assay on MALME-3M melanoma was 45 µM; with NCI-H23 lung it was 80 µM; with BT-549 breast it was above 100 µM; in the assay on SK-MEL-28 melanoma, above 100 µM; in the assay on CAKI-1 renal, 64.6 µM; with NCI-H522 lung, 53.4 µM. The TGI with NCI-H460 lung is above 100 µM; in the assay on OVCAR-3 ovarian it was 44.3 µM; in the assay on HOP-62 NSCLC, above 100 µM.
With `O=C(/C=C1\N=C(c2ccccc2)N(c2nc3ccc(Sc4ccccc4)cc3[nH]2)C1=O)/C=C/c1ccccc1`, the TGI was above 100 µM with MALME-3M melanoma; above 100 µM in the assay on NCI-H23 lung; above 100 µM in the assay with BT-549 breast; above 100 µM with SK-MEL-28 melanoma; above 100 µM in the assay with CAKI-1 renal; 58.2 µM in the assay with NCI-H522 lung. Besides, the TGI with NCI-H460 lung, in the assay with OVCAR-3 ovarian and in the assay with HOP-62 NSCLC was above 100 µM in each case.

Values taken from PubChem BioAssay (NCI).
